Results on four compounds are retold here after PMC9143228, “Evaluation of 3-Borono-L-Phenylalanine as a Water-Soluble Boron Neutron Capture Therapy Agent” (Pharmaceutics, 2022).

Values after ≈ are worked out from the molar mass of the structure shown.

Data set [1] has as its system T3M-4 human pancreatic adenocarcinoma cells. The data set can be described thus: Cellular uptake study, T3M-4. The conditions noted are these: for Boron uptake, specific (LAT1-specific): difference non-inhibitor minus inhibitor; for Boron uptake, non-inhibitor: no inhibitor, mixed with fructose; for Boron uptake, inhibitor: with 10 µM LAT1 inhibitor JPH203. In kind it is cell-based. On the procedure: (§1) B16F10 mouse melanoma cells (RCB2630) and T3M-4 human pancreatic adenocarcinoma cells (RCB1021) were provided by the RIKEN BRC (Ibaraki, Japan). U-87MG human glioblastoma cells were provided by Prof. Magata (Hamamatsu University School of Medicine, Hamamatsu, Japan), and A549 human lung carcinoma cells (CCL-185) were obtained from ATCC (Manassas, VA, USA). Cells were cultured in growth medium RPMI 1640 for B16F10 and T3M-4 and DMEM for A549 and U-87MG, containing 10% fetal bovine serum at 37 °C in a humidified atmosphere of 5% CO2.
(§2) Cells were cultured in six-well plates 2 days before the experiment. After medium removal, cells were washed twice with choline buffer (140 mM choline chloride, 2 mM potassium chloride, 1 mM magnesium chloride, 1 mM calcium chloride, 1 M Tris) and preincubated with 900 µL of choline buffer containing/not containing 10 µM of the LAT1-specific inhibitor JPH203 [32, 33] (Selleck Biotech, Tokyo, Japan) at 37 °C for 5 min. After incubation, 100 µL of 3-BPA or 4-BPA mixed with fructose (0.5 mg/mL, 0.11 w/v% Fru, pH 7.4) was added and incubated at 37 °C for 1, 5, and 30 min. After washing three times with choline buffer, 400 µL of 0.2 M NaOH was added to lyse the cells. After the amount of cell protein was measured using the BCA method (Thermo Fisher Scientific, Tokyo, Japan) and the mixture was ashed with nitric acid, the amount of boron was measured using ICP-MS. The accumulation rate was calculated as % dose/mg protein from the quantified dose of boron in added 3-BPA and 4-BPA, respectively (n = 3).

Data set [2] in a line: Log p measurement (water/1-octanol, ICP-MS). In kind it is physicochemical. Conditions: v/v); water:1-octanol 1:1, n = 12. On the procedure: After dissolving 3-BPA or 4-BPA in water (0.2 mg/mL), 1-octanol was added to compose a water:1-octanol (1:1, v/v) mixture. The mixture was shaken for 5 min and then centrifuged at 5000 rpm for 10 min. The amount of boron was measured for each liquid phase using ICP-MS, and log p was calculated from the concentration ratio of each liquid phase. The experiment was repeated twice with n = 6.

Details of data set [3]: method as in doi:10.1007/978-1-4757-9567-7_10. The conditions noted are these: cited from earlier work.
Data set [4] can be described thus: Water solubility (boron in supernatant by ICP-MS). The class given is physicochemical. Conditions: for solubility at 24 h: 25 °C, 24 h stirring, n = 6. On the procedure:
3-BPA or 4-BPA (40 mg) were suspended in 200 μL water and stirred at 25 °C for 24 h. After stirring, the solution was centrifuged at 5000 rpm for 10 min, and the amount of boron in the supernatant solution was measured by 8800 triple quadrupole ICP-MS (Agilent, Santa Clara, CA, USA). The experiment was repeated twice with n = 3.

The test system of data set [5] is A549 human lung carcinoma cells. The data set can be described thus: Cellular uptake study, A549. In kind it is cell-based. The conditions noted are these: for Boron uptake, specific (LAT1-specific): difference non-inhibitor minus inhibitor; for Boron uptake, non-inhibitor: no inhibitor, mixed with fructose; for Boron uptake, inhibitor: with 10 µM LAT1 inhibitor JPH203. On the procedure:
as §1, §2

For data set [6] the following is noted: cited from earlier work.
The test system of data set [7] is B16F10 mouse melanoma cells. The data set can be described thus: Cellular uptake study, B16F10. In kind it is cell-based. Conditions: for Boron uptake, specific (LAT1-specific): difference non-inhibitor minus inhibitor; for Boron uptake, non-inhibitor: no inhibitor, mixed with fructose; for Boron uptake, inhibitor: with 10 µM LAT1 inhibitor JPH203. The method, then: as §1, §2

The subject of data set [8] is U-87MG human glioblastoma cells. The experiment in a line: Cellular uptake study, U-87MG. The class given is cell-based. The conditions noted are these: for Boron uptake, specific (LAT1-specific): difference non-inhibitor minus inhibitor; for Boron uptake, non-inhibitor: no inhibitor, mixed with fructose; for Boron uptake, inhibitor: with 10 µM LAT1 inhibitor JPH203. The method, then: as §1, §2

Regarding `N[C@@H](Cc1ccc(B(O)O)cc1)C(=O)O` [4-BPA, 4-borono-L-phenylalanine], the “Boron uptake, specific (LAT1-specific)” value amounted to 0.56 ± 0.11 % dose/mg protein in data set [1] (T3M-4, 1 min); 3.10 ± 0.39 % dose/mg protein in data set [1] (T3M-4, 5 min); 5.19 ± 0.45 % dose/mg protein in data set [1] (T3M-4, 30 min); 0.13 ± 0.04 % dose/mg protein in data set [5] (A549, 1 min); 0.66 ± 0.08 % dose/mg protein in data set [5] (A549, 5 min); 3.75 ± 0.20 % dose/mg protein in data set [5] (A549, 30 min). Further, the “Boron uptake, specific (LAT1-specific)” value is given as 0.03 ± 0.01 % dose/mg protein in data set [7] (B16F10, 1 min); 0.48 ± 0.01 % dose/mg protein in data set [7] (B16F10, 5 min); 0.56 ± 0.06 % dose/mg protein in data set [7] (B16F10, 30 min); 0.05 ± 0.02 % dose/mg protein in data set [8] (1 min); 0.06 ± 0.02 % dose/mg protein in data set [8] (5 min); 0.31 ± 0.03 % dose/mg protein in data set [8] (30 min). Besides, the “Boron uptake, non-inhibitor” value in data set [1] (T3M-4, 1 min) was found to be 0.82 ± 0.11 % dose/mg protein; in data set [1] (T3M-4, 5 min) it was 3.28 ± 0.39 % dose/mg protein; in data set [1] (T3M-4, 30 min), 5.40 ± 0.45 % dose/mg protein; in data set [5] (A549, 1 min), 0.14 ± 0.04 % dose/mg protein; in data set [5] (A549, 5 min), 0.66 ± 0.08 % dose/mg protein; in data set [5] (A549, 30 min), 3.92 ± 0.20 % dose/mg protein. Further, the “Boron uptake, non-inhibitor” value in data set [7] (B16F10, 1 min) is reported as 0.03 ± 0.01 % dose/mg protein; in data set [7] (B16F10, 5 min) it was 0.62 ± 0.01 % dose/mg protein; in data set [7] (B16F10, 30 min), 0.57 ± 0.06 % dose/mg protein; in data set [8] (1 min), 0.13 ± 0.02 % dose/mg protein; in data set [8] (5 min) it was 0.20 ± 0.02 % dose/mg protein; in data set [8] (30 min), 0.48 ± 0.03 % dose/mg protein. Also, the “Boron uptake, inhibitor” value in data set [1] (T3M-4, 1 min) is 0.26 ± 0.16 % dose/mg protein; in data set [1] (T3M-4, 5 min) it was 0.18 ± 0.02 % dose/mg protein; in data set [1] (T3M-4, 30 min), 0.20 ± 0.01 % dose/mg protein; in data set [5] (A549, 1 min) it was 0.01 ± 0.01 % dose/mg protein; in data set [5] (A549, 5 min) it was 0.00 ± 0.01 % dose/mg protein; in data set [5] (A549, 30 min) it was 0.17 ± 0.09 % dose/mg protein. Also, the “Boron uptake, inhibitor” value is reported as 0.00 ± 0.01 % dose/mg protein in data set [7] (B16F10, 1 min); 0.14 ± 0.03 % dose/mg protein in data set [7] (B16F10, 5 min); 0.01 ± 0.01 % dose/mg protein in data set [7] (B16F10, 30 min); 0.08 ± 0.01 % dose/mg protein in data set [8] (1 min); 0.14 ± 0.02 % dose/mg protein in data set [8] (5 min); 0.17 ± 0.01 % dose/mg protein in data set [8] (30 min). This compound came in with a lipophilicity (logP) in data set [2] of -1.8 ± 0.04. Moreover, the pKa1 in data set [3] was 2.35. For the same compound, the pKa2 in data set [3] is reported as 8.45. Further, the pKa3 in data set [3] was 9.67. In data set [4] (in water), this compound yielded a solubility at 24 h of 0.72 ± 0.13 mg/mL (≈ 3.44 mM). Moreover, the “Water solubility under neutral conditions” value in data set [6] (neutral conditions, ref Borofalan interview form) is 0.6 to 0.7 mg/mL.

Consider `N[C@@H](Cc1cccc(B(O)O)c1)C(=O)O` [3-BPA, 3-borono-L-phenylalanine], for which the “Boron uptake, specific (LAT1-specific)” value is reported as 0.69 ± 0.09 % dose/mg protein in data set [1] (T3M-4, 1 min); 3.55 ± 0.40 % dose/mg protein in data set [1] (T3M-4, 5 min); 5.41 ± 0.63 % dose/mg protein in data set [1] (T3M-4, 30 min); 0.30 ± 0.12 % dose/mg protein in data set [5] (A549, 1 min); 0.94 ± 0.40 % dose/mg protein in data set [5] (A549, 5 min); 3.60 ± 0.24 % dose/mg protein in data set [5] (A549, 30 min). Further, the “Boron uptake, specific (LAT1-specific)” value in data set [7] (B16F10, 1 min) is 0.03 ± 0.03 % dose/mg protein; in data set [7] (B16F10, 5 min) it was 0.42 ± 0.11 % dose/mg protein; in data set [7] (B16F10, 30 min) it was 0.56 ± 0.07 % dose/mg protein; in data set [8] (1 min) it was 0.02 ± 0.04 % dose/mg protein; in data set [8] (5 min), 0.15 ± 0.04 % dose/mg protein; in data set [8] (30 min), 0.21 ± 0.05 % dose/mg protein. The “Boron uptake, non-inhibitor” value was 0.78 ± 0.09 % dose/mg protein in data set [1] (T3M-4, 1 min); 3.55 ± 0.40 % dose/mg protein in data set [1] (T3M-4, 5 min); 5.62 ± 0.63 % dose/mg protein in data set [1] (T3M-4, 30 min); 0.48 ± 0.12 % dose/mg protein in data set [5] (A549, 1 min); 1.22 ± 0.13 % dose/mg protein in data set [5] (A549, 5 min); 4.02 ± 0.24 % dose/mg protein in data set [5] (A549, 30 min). Moreover, the “Boron uptake, non-inhibitor” value is 0.23 ± 0.03 % dose/mg protein in data set [7] (B16F10, 1 min); 0.59 ± 0.11 % dose/mg protein in data set [7] (B16F10, 5 min); 0.80 ± 0.07 % dose/mg protein in data set [7] (B16F10, 30 min); 0.33 ± 0.04 % dose/mg protein in data set [8] (1 min); 0.28 ± 0.04 % dose/mg protein in data set [8] (5 min); 0.45 ± 0.05 % dose/mg protein in data set [8] (30 min). The “Boron uptake, inhibitor” value in data set [1] (T3M-4, 1 min) is given as 0.09 ± 0.08 % dose/mg protein; in data set [1] (T3M-4, 5 min), 0.09 ± 0.07 % dose/mg protein; in data set [1] (T3M-4, 30 min) it was 0.21 ± 0.06 % dose/mg protein; in data set [5] (A549, 1 min), 0.18 ± 0.03 % dose/mg protein; in data set [5] (A549, 5 min), 0.29 ± 0.02 % dose/mg protein; in data set [5] (A549, 30 min), 0.42 ± 0.01 % dose/mg protein. Also, the “Boron uptake, inhibitor” value was found to be 0.21 ± 0.06 % dose/mg protein in data set [7] (B16F10, 1 min); 0.17 ± 0.11 % dose/mg protein in data set [7] (B16F10, 5 min); 0.24 ± 0.01 % dose/mg protein in data set [7] (B16F10, 30 min); 0.31 ± 0.05 % dose/mg protein in data set [8] (1 min); 0.14 ± 0.05 % dose/mg protein in data set [8] (5 min); 0.24 ± 0.04 % dose/mg protein in data set [8] (30 min). The same compound returned a logP in data set [2] of -1.59. In addition, in data set [3], the pKa1 is listed as 2.26. In addition, the pKa2 in data set [3] is given as 8.46. In addition, in data set [3], the pKa3 is 9.95. Moreover, the solubility at 24 h in data set [4] (in water) was determined as 125 mg/mL (≈ 598 mM). For the same compound, in data set [4] (times higher than 4-BPA), the “Water solubility of 3-BPA relative to 4-BPA” value is “more than 100 times”.

Consider `N[C@@H](Cc1ccccc1)C(=O)O` [phenylalanine], for which the solubility in data set [4] (in water, 25°C, n = 3, Table S8, read-out: Solubility (g/L) (in water, 25°C, n = 3)) turned out to be 15.3 ± 0.1 g/L (≈ 92.6 mM). The water solubility in data set [6] was 12.0 mg/mL (≈ 72.6 mM).

Take `NC(Cc1cccc(O)c1)C(=O)O` (racemic) [meta-Tyrosine, DL-meta-tyrosine]: the “Solubility (g/L) (in water, 25°C, n = 3)” value in data set [4] (in water, 25°C, n = 3, Table S8) is 9.8 ± 0.1 g/L (≈ 54.1 mM). Moreover, the “Water solubility of DL-meta-tyrosine relative to DL-tyrosine” value in data set [4] (times higher than DL-tyrosine) is on record as “more than 25 times”.

What is called logP is a log measure of how a compound divides between an organic and an aqueous phase.
